# Test results as given in the OligoGym collection.
# HELM strings list units from the 5' end as sugar, base in round brackets, then linkage (d deoxyribose, r ribose, m 2'-O-methyl, p phosphodiester). Strings are as the collection lists them; they lack the last nucleoside at the 3' end of the tested compound. [moe] = 2'-O-(2-methoxyethyl) (MOE); [sp] = phosphorothioate linkage; [m5C] = 5-methylcytosine
# Biological target: ATXN2
# Experiment: mouse, dose not given
# Conditions: ASO
row,Substance,3 h FOB score
1,RNA1{[moe](G)[sp].[moe]([m5C])p.[moe](T)p.[moe](G)p.[moe](T)p.d(G)[sp].d(A)[sp].d(G)[sp].d(T)[sp].d(T)[sp].d([m5C])[sp].d(A)[sp].d([m5C])[sp].d([m5C])[sp].d(T)[sp].[moe](G)p.[moe]([m5C])p.[moe](A)[sp].[moe](T)}$$$$ (last 3' nucleoside missing),0 score 0-7
2,RNA1{[moe](G)[sp].[moe]([m5C])p.[moe](T)p.[moe](G)p.[moe](T)p.d(G)[sp].d(T)[sp].d(A)[sp].d(T)[sp].d(T)[sp].d(T)[sp].d(T)[sp].d(T)[sp].d([m5C])[sp].d(T)[sp].[moe](T)p.[moe]([m5C])p.[moe]([m5C])[sp].[moe](T)}$$$$ (last 3' nucleoside missing),0 score 0-7
3,RNA1{[moe](G)[sp].[moe]([m5C])p.[moe](T)p.[moe](T)p.[moe](A)[sp].d(G)[sp].d(A)[sp].d(G)[sp].d(T)[sp].d(T)[sp].d(T)[sp].d(T)[sp].d(T)[sp].[moe](G)p.[moe]([m5C])p.[moe]([m5C])[sp].[moe](T)}$$$$ (last 3' nucleoside missing),4 score 0-7
4,RNA1{[moe](G)[sp].[moe]([m5C])p.[moe](T)p.[moe](T)p.[moe](A)p.[moe](G)p.d(A)[sp].d(G)[sp].d(T)[sp].d(T)[sp].d(T)[sp].d(T)[sp].d(T)[sp].d(G)[sp].d([m5C])[sp].d([m5C])[sp].[moe](T)p.[moe](T)[sp].[moe]([m5C])}$$$$ (last 3' nucleoside missing),5 score 0-7
5,RNA1{[moe](G)[sp].[moe]([m5C])p.[moe](T)p.[moe](T)p.[moe](A)p.d(G)[sp].d(A)[sp].d(G)[sp].d(T)[sp].d(T)[sp].d(T)[sp].d(T)[sp].d(T)[sp].d(G)[sp].d([m5C])[sp].[moe]([m5C])p.[moe](T)p.[moe](T)[sp].[moe]([m5C])}$$$$ (last 3' nucleoside missing),4 score 0-7
6,RNA1{[moe](G)[sp].[moe]([m5C])p.[moe](T)p.[moe](T)p.[moe](A)p.d(T)[sp].d(T)[sp].d(A)[sp].d(T)[sp].d(T)[sp].d([m5C])[sp].d(T)[sp].d([m5C])[sp].d(A)[sp].d([m5C])[sp].[moe](A)p.[moe](T)p.[moe](A)[sp].[moe](T)}$$$$ (last 3' nucleoside missing),0 score 0-7
7,RNA1{[moe](G)[sp].[moe]([m5C])p.[moe](T)p.[moe](T)p.d(A)[sp].d(G)[sp].d(A)[sp].d(G)[sp].d(T)[sp].d(T)[sp].d(T)[sp].d(T)[sp].d(T)[sp].d(G)[sp].[moe]([m5C])p.[moe]([m5C])p.[moe](T)p.[moe](T)[sp].[moe]([m5C])}$$$$ (last 3' nucleoside missing),4 score 0-7
8,RNA1{[moe](T)[sp].[moe](A)p.[moe](A)p.[moe](G)p.[moe](A)p.d([m5C])[sp].d(T)[sp].d(T)[sp].d(T)[sp].d(T)[sp].d(T)[sp].d(A)[sp].d(T)[sp].d(G)[sp].d(T)[sp].[moe](T)p.[moe](G)p.[moe]([m5C])[sp].[moe](T)}$$$$ (last 3' nucleoside missing),1 score 0-7
9,RNA1{[moe](T)[sp].[moe](A)p.[moe](A)p.[moe](G)p.[moe]([m5C])p.d(T)[sp].d(G)[sp].d(T)[sp].d(G)[sp].d([m5C])[sp].d(T)[sp].d(A)[sp].d(T)[sp].d(G)[sp].d(G)[sp].[moe](T)p.[moe](G)p.[moe](G)[sp].[moe](T)}$$$$ (last 3' nucleoside missing),6.25 score 0-7
10,RNA1{[moe](T)[sp].[moe](A)p.[moe](A)p.[moe](T)p.[moe](A)p.d(T)[sp].d(T)[sp].d([m5C])[sp].d([m5C])[sp].d(A)[sp].d(T)[sp].d(A)[sp].d([m5C])[sp].d(A)[sp].d(G)[sp].[moe](A)p.[moe](T)p.[moe]([m5C])[sp].[moe](G)}$$$$ (last 3' nucleoside missing),0 score 0-7
